According to ChEMBL document CHEMBL2385061, “Synthesis and carbonic anhydrase inhibitory properties of sulfamides structurally related to dopamine” (Bioorg Med Chem, 2013):
pKi: −log10 of the molar value.

How the values were obtained:
[1] = biological target: Carbonic anhydrase 5A, mitochondrial (Homo sapiens, UniProt P35218); test: Inhibition of human carbonic anhydrase-5A preincubated for 15 mins by stopped-flow CO2 hydration assay
Carbonic anhydrase 9 = Carbonic anhydrase 9 (Homo sapiens, UniProt Q16790); test: Inhibition of human carbonic anhydrase-9 preincubated for 15 mins by stopped-flow CO2 hydration assay

Carbonic anhydrase 5A, mitochondrial, sequence (P35218 whole entry): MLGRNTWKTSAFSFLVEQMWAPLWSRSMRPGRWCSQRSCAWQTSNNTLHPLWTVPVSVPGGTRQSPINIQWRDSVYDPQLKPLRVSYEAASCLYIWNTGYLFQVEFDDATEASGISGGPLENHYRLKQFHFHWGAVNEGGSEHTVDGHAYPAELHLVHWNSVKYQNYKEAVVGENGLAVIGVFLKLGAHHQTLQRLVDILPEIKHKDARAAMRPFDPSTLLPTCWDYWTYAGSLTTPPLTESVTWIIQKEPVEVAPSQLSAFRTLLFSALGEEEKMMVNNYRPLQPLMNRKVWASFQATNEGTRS

Row | SMILES | pKi [1] | pKi (Carbonic anhydrase 9)
1 | COc1cc(CCNS(N)(=O)=O)cc(OC)c1OC | < 4.30 | 6.66
2 | COc1ccc(CCNS(N)(=O)=O)cc1OC | 5.64 | 7.04
3 | COc1ccc(CCNS(N)(=O)=O)cc1 | 5.49 | 6.42

Other lines, results leading:

Row | pKi [1] | pKi (Carbonic anhydrase 9) | SMILES
4 | < 4.30 | < 4.30 | COc1cccc(CCNS(N)(=O)=O)c1OC
5 | 5.48 | 7.39 | COc1ccccc1CCNS(N)(=O)=O
